Source: US20090221653A1, “7-(2-amino-1-hydroxy-ethyl)-4-hydroxybenzothiazol-2(3H)-one-derivatives as beta2 adrenoreceptor agonists” (AstraZeneca AB, priority 2005, published 2009)
Structures can show the parent of a compound that is named as a salt.

Key:
[1] = biological target: T1, Adrenergic β2 (Homo sapiens, UniProt P07550); assay: Alternative Adrenergic β2 Mediated cAMP Production in H292 cells (AlphaScreen cAMP detection); type: cell-based; conditions: for EC50: cAMP, test compounds incubated 60 minutes, 300 μM rolipram, read-out: β2 pEC50 (converted); for β2 Int Act: fraction relative to the maximum activity determined for formoterol, 60 minutes incubation
T1 construct: endogenous in cells; host or cells: H292 cells
Experimental: H292 cells were grown in 225 cm2 flasks incubator at 37° C., 5% CO2 in RPMI medium containing, 10% (v/v) FBS (foetal bovine serum) and 2 mM L-glutamine.
Adherent H292 cells were removed from tissue culture flasks by treatment with Accutase™ cell detachment solution for 15 minutes. Flasks were incubated for 15 minutes in a humidified incubator at 37° C., 5% CO2. Detached cells were re-suspended in RPMI media (containing 10% (v/v) FBS and 2 mM L-glutamine) at 0.05×10^6 cells per mL. 5000 cells in 100 μL were added to each well of a tissue-culture-treated 96-well plate and the cells incubated overnight in a humidified incubator at 37° C., 5% CO2. The culture media was removed and cells were washed twice with 100 μL assay buffer and replaced with 50 μL assay buffer (HBSS solution containing 10 mM HEPES pH7.4 and 5 mM glucose). […] Cells were incubated with rolipram for 10 minutes after which time test compounds were added and the cells were incubated for 60 minutes at room temperature. […] The reaction was stopped by removing supernatants, washing once with 100 μL assay buffer and replacing with 50 μL lysis buffer. The cell monolayer was frozen at −80° C. for 30 minutes (or overnight).
The concentration of cAMP (cyclic adenosine monophosphate) in the cell lysate was determined using AlphaScreen™ methodology. The frozen cell plate was thawed for 20 minutes on a plate shaker then 10 μL of the cell lysate was transferred to a 96-well white plate. 40 μL of mixed AlphaScreen™ detection beads pre-incubated with biotinylated cAMP, was added to each well and the plate incubated at room temperature for 10 hours in the dark. The AlphaScreen™ signal was measured using an EnVision spectrophotometer (Perkin-Elmer Inc.) with the recommended manufacturer's settings. cAMP concentrations were determined by reference to a calibration curve determined in the same experiment using standard cAMP concentrations. Concentration response curves for agonists were constructed and data was fitted to a four parameter logistic equation to determine both the pEC50 and Intrinsic Activity.

[2] = biological target: T2, recombinant human α1D receptor (Homo sapiens, UniProt P25100); assay: Adrenergic α1D selectivity assay, inhibition of [3H]-prazosin binding; conditions: HEK293 membranes, [3H]-prazosin 0.3 nM; read-out: α1 bind pIC50 (converted)
T2 construct: expressed in transfected cells; host or cells: HEK293
T2 sequence (P25100 1-572): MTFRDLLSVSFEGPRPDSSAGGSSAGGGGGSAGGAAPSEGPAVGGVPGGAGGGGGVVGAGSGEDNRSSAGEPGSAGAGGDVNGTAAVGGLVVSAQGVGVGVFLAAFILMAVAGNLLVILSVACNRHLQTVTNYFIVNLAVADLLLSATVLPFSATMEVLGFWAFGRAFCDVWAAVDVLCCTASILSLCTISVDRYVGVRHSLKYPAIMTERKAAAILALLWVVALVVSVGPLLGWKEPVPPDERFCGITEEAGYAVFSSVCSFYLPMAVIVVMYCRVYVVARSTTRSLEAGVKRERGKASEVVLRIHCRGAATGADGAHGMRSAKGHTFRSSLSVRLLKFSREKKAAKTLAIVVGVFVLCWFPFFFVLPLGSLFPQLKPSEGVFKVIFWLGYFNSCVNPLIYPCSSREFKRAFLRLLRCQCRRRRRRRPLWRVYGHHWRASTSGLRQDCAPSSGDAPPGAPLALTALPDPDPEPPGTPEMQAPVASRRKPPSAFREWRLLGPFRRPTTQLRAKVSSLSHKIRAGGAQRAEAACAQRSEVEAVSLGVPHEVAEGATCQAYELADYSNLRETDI
Experimental: Membranes were prepared from human embryonic kidney 293 (HEK293) cells expressing recombinant human α1D receptor. These were diluted in Assay Buffer (50 mM HEPES, 1 mM EDTA, 0.1% gelatin, pH 7.4) to provide a final concentration of membranes that gave a clear window between maximum and minimum specific binding.
(§1) Assays were performed in U-bottomed 96-well polypropylene plates. 10 μL [^3H]-prazosin (0.3 nM final concentration) and 10 μL of test compound (10× final concentration) were added to each test well. For each assay plate 8 replicates were obtained for [^3H]-prazosin binding in the presence of 10 μL vehicle (10% (v/v) DMSO in Assay Buffer; defining maximum binding) or 10 μL BMY7378 (10 μM final concentration; defining non-specific binding (NSB)). Membranes were then added to achieve a final volume of 100 μL. The plates were incubated for 2 hours at room temperature and then filtered onto PEI coated GF/B filter plates, pre-soaked for 1 hour in Assay Buffer, using a 96-well plate Tomtec cell harvester. Five washes with 250 μL wash buffer (50 mM HEPES, 1 mM EDTA, pH 7.4) were performed at 4° C. to remove unbound radioactivity. The plates were dried then sealed from underneath using Packard plate sealers and MicroScint-O (50 μL) was added to each well. The plates were sealed (TopSeal A) and filter-bound radioactivity was measured with a scintillation counter (TopCount, Packard BioScience) using a 3-minute counting protocol.
(§2) Total specific binding (B0) was determined by subtracting the mean NSB from the mean maximum binding. NSB values were also subtracted from values from all other wells.

[3] = biological target: T3, recombinant human adrenergic beta 1 receptors (Homo sapiens, UniProt P08588); assay: Adrenergic β1 selectivity assay, inhibition of [125I]-Iodocyanopindolol binding; conditions: membranes, [125I]-Iodocyanopindolol; read-out: β1 bind pIC50 (converted)
T3 construct: purchased Euroscreen
Experimental: (§3) Membranes containing recombinant human adrenergic beta 1 receptors were obtained from Euroscreen. These were diluted in Assay Buffer (50 mM HEPES, 1 mM EDTA, 120 mM NaCl, 0.1% gelatin, pH 7.4) to provide a final concentration of membranes that gave a clear window between maximum and minimum specific binding.
as §1, with “10 μL [^3H]-prazosin (0.3 nM final concentration) and 10 μL of test compound (10× final concentration) were added to each test well. For each assay plate 8 replicates were obtained for [^3H]-prazosin binding in the presence of 10 μL vehicle (10% (v/v) DMSO in Assay Buffer; defining maximum binding) or 10 μL BMY7378 (10 μM final concentration; defining non-specific binding (NSB)).” left out, “EDTA, 120 mM NaCl,” for “EDTA,”
as §2

[4] = biological target: T4, recombinant human Dopamine Subtype D2s receptors (Homo sapiens, UniProt P14416); assay: Dopamine D2 selectivity assay, inhibition of [3H]-spiperone binding; conditions: membranes, [3H]-spiperone 0.16 nM; read-out: D2 bind pIC50 (converted)
T4 construct: purchased Perkin Elmer
Experimental: as §3, with “human Dopamine Subtype D2s” for “human adrenergic beta 1”, “from Perkin Elmer.” for “from Euroscreen.”, “([…]” for “(50 mM”
Assays were performed in U-bottomed 96-well polypropylene plates. […] For each assay plate 8 replicates were obtained for [^3H]-spiperone binding in the presence of 30 μL vehicle (10% (v/v) DMSO in Assay Buffer; defining maximum binding) or 30 μL Haloperidol (10 μM final concentration; defining non-specific binding (NSB)). Membranes were then added to achieve a final volume of 300 μL. The plates were incubated for 2 hours at room temperature and then filtered onto PEI coated GF/B filter plates, pre-soaked for 1 hour in Assay Buffer, using a 96-well plate Tomtec cell harvester. Five washes with 250 μL wash buffer (50 mM HEPES, 1 mM EDTA, 120 mM NaCl, pH 7.4) were performed at 4° C. to remove unbound radioactivity. The plates were dried then sealed from underneath using Packard plate sealers and MicroScint-O (50 μL) was added to each well. The plates were sealed (TopSeal A) and filter-bound radioactivity was measured with a scintillation counter (TopCount, Packard BioScience) using a 3-minute counting protocol. Total specific binding (B0) was determined by subtracting the mean NSB from the mean maximum binding. NSB values were also subtracted from values from all other wells.

T3 sequence (P08588 whole entry): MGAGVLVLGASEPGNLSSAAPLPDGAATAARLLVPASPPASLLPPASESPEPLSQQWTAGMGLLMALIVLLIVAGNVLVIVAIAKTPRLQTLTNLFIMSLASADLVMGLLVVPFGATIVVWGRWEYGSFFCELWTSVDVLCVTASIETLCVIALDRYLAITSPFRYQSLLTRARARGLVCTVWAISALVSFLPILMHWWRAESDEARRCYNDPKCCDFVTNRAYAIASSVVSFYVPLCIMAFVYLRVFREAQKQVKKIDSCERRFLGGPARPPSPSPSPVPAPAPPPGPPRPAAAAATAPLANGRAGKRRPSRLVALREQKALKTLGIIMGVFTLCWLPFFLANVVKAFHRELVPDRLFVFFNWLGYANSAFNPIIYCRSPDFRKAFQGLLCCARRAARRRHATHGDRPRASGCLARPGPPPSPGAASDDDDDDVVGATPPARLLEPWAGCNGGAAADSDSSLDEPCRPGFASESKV
T1 sequence (P07550 whole entry): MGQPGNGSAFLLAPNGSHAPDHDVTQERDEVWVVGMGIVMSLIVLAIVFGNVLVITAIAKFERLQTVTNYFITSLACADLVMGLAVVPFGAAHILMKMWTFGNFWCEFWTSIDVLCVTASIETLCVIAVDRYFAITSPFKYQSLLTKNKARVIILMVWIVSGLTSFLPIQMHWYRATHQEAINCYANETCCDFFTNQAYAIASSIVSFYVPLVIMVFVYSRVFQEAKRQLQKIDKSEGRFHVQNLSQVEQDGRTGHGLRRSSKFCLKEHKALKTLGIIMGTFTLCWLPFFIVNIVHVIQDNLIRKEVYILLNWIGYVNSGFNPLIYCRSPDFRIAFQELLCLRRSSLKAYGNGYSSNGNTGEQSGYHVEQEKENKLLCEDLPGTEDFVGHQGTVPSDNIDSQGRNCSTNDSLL
T4 sequence (P14416 1-414 isoform P14416-2): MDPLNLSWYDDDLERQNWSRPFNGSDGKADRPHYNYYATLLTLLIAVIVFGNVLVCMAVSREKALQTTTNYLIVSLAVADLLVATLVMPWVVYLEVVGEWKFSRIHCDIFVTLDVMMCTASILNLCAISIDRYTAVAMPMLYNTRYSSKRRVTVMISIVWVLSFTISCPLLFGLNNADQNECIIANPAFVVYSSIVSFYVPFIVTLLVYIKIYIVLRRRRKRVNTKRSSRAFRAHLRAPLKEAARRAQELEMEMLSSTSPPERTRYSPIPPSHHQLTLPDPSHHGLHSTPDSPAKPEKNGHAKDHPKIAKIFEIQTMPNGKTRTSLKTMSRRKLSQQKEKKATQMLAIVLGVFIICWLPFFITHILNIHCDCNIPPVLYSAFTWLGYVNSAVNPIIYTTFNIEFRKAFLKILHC

Compound | EC50 [1] [nM] | β2 Int Act [1] | IC50 [2] [nM] | IC50 [3] [nM] | IC50 [4] [nM]
O=c1[nH]c2c(O)ccc([C@@H](O)CNCCSCCCNCCc3cccc(C(F)(F)F)c3)c2s1 [Example 18, 4-Hydroxy-7-{(1R)-1-hydroxy-2-[(2-{[3-({2-[3-(trifluoromethyl)phenyl]ethyl}amino)propyl]thio}ethyl)amino]ethyl}-1,3-benzothiazol-2(3H)-one] | 3.16 | 0.8 | 251 | 100 | –
O=c1[nH]c2c(O)ccc([C@@H](O)CNCCCSCCNCCc3cccc(Cl)c3)c2s1 [Example 33, 7-[(1R)-2-({3-[(2-{[2-(3-Chlorophenyl)ethyl]amino}ethyl)thio]propyl}amino)-1-hydroxyethyl]-4-hydroxy-1,3-benzothiazol-2(3H)-one] | – | 1.1 | 39.8 | – | 1000
O=c1[nH]c2c(O)ccc([C@@H](O)CNCCOCCCNCCc3cccc(Cl)c3)c2s1 [Example 36, 7-((1R)-2-{[2-(3-{[2-(3-Chlorophenyl)ethyl]amino}propoxy)ethyl]amino}-1-hydroxyethyl)-4-hydroxy-1,3-benzothiazol-2(3H)-one] | – | 1 | – | 100 | –
O=c1[nH]c2c(O)ccc([C@@H](O)CNCCSCCCNCCc3ccccc3Cl)c2s1 [Example 20, 7-[(1R)-2-({2-[(3-{[2-(2-Chlorophenyl)ethyl]amino}propyl)thio]ethyl}amino)-1-hydroxyethyl]-4-hydroxy-1,3-benzothiazol-2(3H)-one] | – | 0.8 | 25.1 | – | –
O=c1[nH]c2c(O)ccc([C@@H](O)CNCCCSCCOCCc3cccc4ccccc34)c2s1 [Example 1, 4-Hydroxy-7-((1R)-1-hydroxy-2-{[3-({2-[2-(1-naphthyl)ethoxy]ethyl}thio)propyl]-amino}ethyl)-1,3-benzothiazol-2(3H)-one trifluoroacetate] | 0.1 | 1 | – | – | 200
CCc1ccc(CCNCCCSCCNC[C@H](O)c2ccc(O)c3[nH]c(=O)sc23)cc1 [Example 14, 7-[(1R)-2-({2-[(3-{[2-(4-Ethylphenyl)ethyl]amino}propyl)thio]ethyl}amino)-1-hydroxyethyl]-4-hydroxy-1,3-benzothiazol-2(3H)-one] | 3.98 | 0.9 | 100 | 50.1 | –
O=c1[nH]c2c(O)ccc([C@@H](O)CNCCCOCCOCCc3cccc4ccccc34)c2s1 [Example 7, 4-Hydroxy-7-{(1R)-1-hydroxy-2-[(3-{2-[2-(1-naphthyl)ethoxy]ethoxy}propyl)amino]ethyl}-1,3-benzothiazol-2(3H)-one] | – | 1.1 | 631 | – | –
Cl.O=c1[nH]c2c(O)ccc([C@@H](O)CNCCCSCCCOCCc3ccccc3)c2s1 [Example 6, 4-Hydroxy-7-{(1R)-1-hydroxy-2-[(3-{[3-(2-phenylethoxy)propyl]thio}propyl)amino]ethyl}-1,3-benzothiazol-2(3H)-one hydrochloride] | – | 0.9 | – | 3.98 | –
Cl.O=c1[nH]c2c(O)ccc([C@@H](O)CNCCSCCCNCCc3ccccc3)c2s1 [Example 11, 4-Hydroxy-7-((1R)-1-hydroxy-2-{[2-({3-[(2-phenylethyl)amino]propyl}thio)ethyl]amino}ethyl)-1,3-benzothiazol-2(3H)-one hydrochloride] | – | 0.9 | 126 | 251 | –
CCOc1ccc(CCNCCCSCCNC[C@H](O)c2ccc(O)c3[nH]c(=O)sc23)cc1 [Example 16, 7-[(1R)-2-({2-[(3-{[2-(4-Ethoxyphenyl)ethyl]amino}propyl)thio]ethyl}amino)-1-hydroxyethyl]-4-hydroxy-1,3-benzothiazol-2(3H)-one] | – | 0.7 | 1580 | – | –
O=c1[nH]c2c(O)ccc([C@@H](O)CNCCSCCCNCCc3cccc(Cl)c3)c2s1 [Example 40, 7-[(1R)-2-({2-[(3-{[2-(3-Chlorophenyl)ethyl]amino}propyl)thio]ethyl}amino)-1-hydroxyethyl]-4-hydroxy-1,3-benzothiazol-2(3H)-one dihydrochloride] | 1 | 0.8 | – | – | –
O=c1[nH]c2c(O)ccc([C@@H](O)CNCCCOCCOCCc3ccccc3)c2s1 [Example 3, 4-Hydroxy-7-[(1R)-1-hydroxy-2-({3-[2-(2-phenylethoxy)ethoxy]propyl}amino)ethyl]-1,3-benzothiazol-2(3H)-one trifluoroacetate] | 0.126 | 0.9 | – | – | –
Cl.O=c1[nH]c2c(O)ccc([C@@H](O)CNCCCSCCOCCc3ccccc3)c2s1 [Example 9, 4-Hydroxy-7-{(1R)-1-hydroxy-2-[(3-{[2-(2-phenylethoxy)ethyl]thio}-propyl)amino]ethyl}-1,3-benzothiazol-2(3H)-one hydrochloride] | – | 1 | – | – | –
